In article PMC8070164 (Biomolecules, 2021):

How the values were obtained:
[1] = system: rat ASIC1a; assay: Two electrode voltage-clamp in Xenopus oocytes (ASIC1a activation); type: cell-based
Procedure: ASIC1a cRNA synthesis and preparation of oocytes was described previously. Briefly, oocytes were removed from anesthetized frogs; frogs were killed after final oocyte collection by decapitation. Animal care and surgery of frogs were conducted under protocols approved by the State Office for Nature, Environment, and Consumer Protection (LANUV) of North Rhine-Westphalia (NRW), Germany, and were performed in accordance with LANUV NRW guidelines. ASIC1a cRNA (0.016 ng) was injected into stage V or VI oocytes. Oocytes were kept in OR-2 medium (in mM, 82 NaCl, 2.5 KCl, 1 Na2HPO4, 4-(2-hydroxyethyl)-1-piperazineethanesulfonic acid (HEPES), 1.0 MgCl2, 1 CaCl2, and 0.5 mg/mL polyvinylpyrrolidone) at 19 °C. Two electrode voltage-clamp measurements were performed as described previously. Whole cell currents were recorded 24–48 h post injection at room temperature (20–25 °C) with a TurboTec 03X amplifier (npi Electronic, Tamm, Germany). Fast solution exchange was performed by a programmable pipetting robot (screening tool; npi Electronic). Data acquisition was controlled using CellWorks 5.1.1 (npi Electronic). Data were filtered at 20 Hz and acquired at 1 kHz. Holding potential was −70 mV. Standard bath solution for two electrode voltage-clamp measurements contained (in mM) 140 NaCl, 1.8 CaCl2, 1 MgCl2, and 10 HEPES.
(§1) Rat nocistatin ([…]) has been purchased from ProteoGenix (Schiltigheim, France) with a guaranteed purity of >95%. It was delivered as a lyophilized powder. For measurements with oocytes, it was dissolved in standard bath solution (pH 7.4) to obtain a concentration of 1 mM. This solution was further diluted to 0.5 mM; for one half of this solution, the pH was adjusted to pH 7.4, for the other half it was not adjusted. For measurements with CHO cells, the peptide was dissolved in bath solution to obtain a concentration of 0.25 mM; the pH was adjusted to 7.4. The solutions were freshly prepared before use.
Similar to the previous study, we expressed rat ASIC1a in Xenopus laevis oocytes and performed two electrode voltage-clamp to study activation of ASIC1a by nocistatin.
Current trace recorded from a rASIC1a-expressing oocyte stimulated repetitively with pH 6.0 for 20 s (black bars); conditioning pH 7.4 was applied for 60 s. Rat nocistatin (rNS, 0.5 mM) in pH-unadjusted (pH 5.1, red bar) und pH-adjusted (pH 7.4, green bar) conditioning solution was applied for 20 s.

[2] = system: rat ASIC1a; assay: Whole cell patch-clamp in transfected CHO cells (ASIC1a activation); type: cell-based
Procedure: Chinese hamster ovary (CHO) cells were maintained in Ham’s Nutrient Mixture F12 (Sigma, St. Louis, MI, USA) together with 10% fetal bovine serum (FBS; Sigma, St. Louis, MI, USA) and passaged regularly. Cells were seeded and transfected after 1 day with 1 µg rat ASIC1a cDNA in pCDNA3.1 and 1 µg GFP using X-treme GENE (Sigma, St. Louis, MI, USA). Cells were patched 48 h after transfection.
We performed whole cell patch-clamp measurements on cultured CHO cells, using patch pipettes of 4–6 MΩ resistance filled with (in mM) 10 NaCl, 121 KCl, 2 MgCl2, 5 EGTA, 10 HEPES, pH 7.25. The bath solution contained (in mM) 128 NaCl, 5.4 KCl, 1 MgCl2, 2 CaCl2, 10 HEPES, pH 7.4 with NaOH. Osmolarity was adjusted with glucose to 280 mOsmol/L for the pipette solution and to 290 mOsmol/L for the extracellular solution. Data were acquired using an Axon Digidata 1440A and an Axon Axopatch 200B and recorded and analyzed using the pClamp Software (Axon Instruments, Molecular Devices, Sunnyvale, San Jose, CA, USA).
as §1
(A) current trace of a CHO cell transfected with rASIC1a cDNA stimulated with pH 6.0 (black bar) or with rNS (0.25 mM, pH 7.4, green bar) for 10 s. Conditioning pH 7.4. This trace is representative for 6 similar measurements. (B) as in A, ASIC1a-expressing CHO cell was stimulated repetitively with pH 6.0 for 10 s (black bars). rNS (0.25 mM, pH 7.4, green bar) was applied for 10 s prior to pH 6.0 stimulation. This trace is representative for 3 similar measurements.

[3] = system: ASIC1a; conditions: ref [18], cited from earlier work
Description: Indeed, several neuropeptides modulate ASICs by directly binding to these ionotropic receptors. For example, dynorphin opioid neuropeptides bind to the acidic pocket of ASIC1a and shift steady-state desensitization curves to higher proton concentrations. RFamide neuropeptides bind to the central vestibule of ASIC3 [14] and delay its desensitization. […] Strikingly, it was reported that the apparent nocistatin affi ...

[4] = system: ASIC2a; conditions: ref [18], cited from earlier work
Procedure: (§2) Indeed, several neuropeptides modulate ASICs by directly binding to these ionotropic receptors. For example, dynorphin opioid neuropeptides bind to the acidic pocket of ASIC1a and shift steady-state desensitization curves to higher proton concentrations. RFamide neuropeptides bind to the central vestibule of ASIC3 [14] and delay its desensitization. […] But ASIC2a has a low proton sensitivity with an EC50 of ~4.0 [21, 22]. Because 1 mM noci ...

[5] = system: ASIC1b; conditions: cited from earlier work
Procedure: as §2

[6] = system: ASIC3; conditions: cited from earlier work
Procedure: as §2

[7] = pH of bath solution after dissolving nocistatin; type: physicochemical; conditions: standard bath solution, 10 mM HEPES, initial pH 7.4, standard pH meter
Procedure: as §1
We dissolved nocistatin in bath solution containing 10 mM HEPES with a pH of 7.4 (see Methods); this is the same buffer at the same concentration that was previously used in the study reporting activation of ASICs by nocistatin [18]. Nocistatin dissolved readily, but, as expected for a highly acidic peptide with a pI of 3.7, the pH of the solution dropped to pH values between 6.7 and 4.15 when we dissolved nocistatin to obtain a final concentration between 0.25 and 1 mM (Table 1). We titrated nocistatin-containing solutions using NaOH until we reached again neutral pH of 7.4. For comparison, we also tested a solution containing 0.5 mM nocistatin without adjustment of the pH value.

[8] = system: FMRFamide-activated Na^+ channel (FaNaC); conditions: cited from earlier work
Procedure: For example, some DEG/ENaCs from invertebrates are directly gated by neuropeptides. The FMRFamide-activated Na^+ channel (FaNaC) from the snail Helix is activated by the neuropeptide FMRFamide with an EC50 of ~2 μM [9], Hydra Na^+ channels (HyNaCs) are activated by Hydra-RFamides with an EC50 of 0.05–10 μM [10], and the myoinhibitory peptide-gated ion channel (MGIC) from the annelid Platynereis is activated by myoinhibitory peptides with an EC50 of 1–5 μM [11]. Therefore, neuropeptides are attractive candidates also for ASIC agonists. Of note, these peptide-gated ion channels desensitize ...

[9] = system: ASIC3; conditions: ref [16],[17]; cited from earlier work
Description: Indeed, several neuropeptides modulate ASICs by directly binding to these ionotropic receptors. For example, dynorphin opioid neuropeptides bind to the acidic pocket of ASIC1a and shift steady-state desensitization curves to higher proton concentrations. RFamide neuropeptides bind to the central vestibule of ASIC3 [14] and delay its desensitization.

[10] = 1 mM nocistatin vs pH 5.5, ref [18]

MPRVRSVVQARDAEPEADAEPVADEADEVEQKQLQ [nocistatin, endogenous neuropeptide with 35 amino acids; rat nocistatin purchased from ProteoGenix, purity >95%]
ASIC1a current on pH 6.0 application immediately after nocistatin at pH 5.1 (desensitization) ([1]; 0.5 mM nocistatin pH 5.1, then pH 6.0, holding potential −70 mV, representative for 5 measurements): did not elicit currents, indicating that ASIC1a was completely desensitized | ASIC current on pH 6.0 application immediately after nocistatin at pH 7.4 (desensitization) ([1]; 0.5 mM nocistatin pH 7.4, then pH 6.0, holding potential −70 mV, representative for 5 measurements): elicited ASIC currents with a full amplitude | ASIC1a current elicited by nocistatin, pH not adjusted ([1]; 0.5 mM, pH 5.1, 20 s, conditioning pH 7.4, holding potential −70 mV, representative for 5 measurements): elicited ASIC1a currents with an amplitude and kinetics similar to the currents elicited by pH 6.0 | ASIC1a current elicited by nocistatin, pH adjusted ([1]; 0.5 mM, pH adjusted to 7.4, 20 s, holding potential −70 mV, representative for 5 measurements): elicited no ASIC1a currents | direct activation of ASIC1a (summary) ([1]; up to 500 μM nocistatin, Xenopus oocytes): did not directly activate ASIC1a | ASIC1a current on pH 6.0 application following nocistatin ([2]; 0.25 mM nocistatin pH 7.4 for 10 s, then pH 6.0 for 10 s, representative for 3 measurements): induced canonical ASIC1a currents | current elicited by nocistatin at neutral pH ([2]; 0.25 mM, pH 7.4, 10 s, conditioning pH 7.4, representative for 6 measurements): elicited no current | direct activation of ASIC1a (summary) ([2]; CHO cells, text says up to 500 μM nocistatin): did not directly activate ASIC1a | direct agonism ([3]; ASIC1a): direct agonist | desensitization kinetics of nocistatin-induced currents ([3]; compared with proton-induced currents): virtually identical to the kinetics of proton-induced currents | EC50 ([3]; read-out: EC50 (affinity of nocistatin for ASIC1a)): ~250 µM | current amplitude, 1 mM nocistatin compared with acidification from 7.4 to 5.5 ([4]; 1 mM nocistatin vs acidification from 7.4 to 5.5, ASIC2a): eight times larger current amplitudes | activation by 1 mM nocistatin ([4]; 1 mM, ASIC2a): activated | direct agonism ([4]; ASIC2): direct agonist | current amplitude, 1 mM nocistatin compared with pH 5.5 [5, 10]: similar | activation by 1 mM nocistatin ([5]; 1 mM, ref [18]): activated | direct agonism ([5]; ref [18]): direct agonist | current amplitude, 1 mM nocistatin compared with pH 5.5 [6, 10]: similar | activation by 1 mM nocistatin ([6]; 1 mM, ref [18]): activated | direct agonism ([6]; ref [18]): direct agonist | measured pH value after dissolving nocistatin ([7]; 0.25 mM nocistatin): 6.7 | measured pH value after dissolving nocistatin ([7]; 0.5 mM nocistatin): 5.1 | measured pH value after dissolving nocistatin ([7]; 1.0 mM nocistatin): 4.15

FMRFamide
desensitization time constant ([8]; desensitize only partially and slowly, ref [9],[10],[11]): > 10 s | EC50 ([8]; ref [9]): ~2 µM

endomorphin-2
effect on ASIC3 desensitization [9]: slow desensitization of ASIC3

endomorphin-1
effect on ASIC3 desensitization [9]: slow desensitization of ASIC3
